Like-named read-outs stand apart in the source and are kept apart here.
Columns and labels:
[1] = tested on: EOC258 primary ovarian cancer cells; assay: MTS viability, primary epithelial ovarian cancer cells EOC258; format: cell-based; conditions: Homo sapiens
Description: (§1) FIG. 2L to 2N. Effects of compounds 1, 56 or 69 on the viability of primary epithelial ovarian cancer cells grown as adherent and spheroid cultures. EOC cells were isolated from the ascites of ovarian cancer patients. Cells were seeded in regular 96-well plates and grown as adherent cultures. 24 h after seeding the cells were incubated with compounds 1, 56, or 69 for 48 h and the viability of the cells were determined with the MTS assay. Spheroid cultures were obtained by seeding the cells in ultra-low adhesion 96-well plates for 3 days. The spheroids were incubated with compounds 1, 56 or 69 for 3 days. At the end of the incubations, MTS reagent (20% vol/vol) was added and the plates were incubated for 1-4 h. The OD490 was read with a plate reader. Wells with media but no cells were treated in similar fashion and the values utilized as blank. The results represent the mean±standard deviation of 6 independent determinations.
(§2) 4.3.1.2. Isolation of primary epithelial ovarian cancer cells (EOC) from ascites fluid of ovarian cancer patients. The isolation of EOC cells from the ascites fluid of ovarian cancer patients was performed as described by Shepherd et al 2007, Nature protocols 1, 2643-2649). The cells were grown in DMEM/F12 supplemented with 10% FBS medium. 4.3.2. Isolation of breast cancer stem cells from BT-474, prostate cancer stem cells from DU145, and ovarian cancer stem cells from A2780cp cell lines and determination of the effect of GAELs on the viability of the cancer stem cells.

[2] = tested on: EOC260 primary ovarian cancer cells; assay: MTS viability, primary epithelial ovarian cancer cells EOC260; format: cell-based; conditions: Homo sapiens; adherent culture, 48 h
Description: as §1
4.3.1.2. Isolation of primary epithelial ovarian cancer cells (EOC) from ascites fluid of ovarian cancer patients. The isolation of EOC cells from the ascites fluid of ovarian cancer patients was performed as described by Shepherd et al 2007, Nature protocols 1, 2643-2649). The cells were grown in DMEM/F12 supplemented with 10% FBS medium. 4.3.2. […]

BT-474 cells = assay: MTS viability assay, BT-474 breast cancer cells; format: cell-based, human
Description: (§3) FIG. 2C. Effects of compounds 1-11 on the viability of BT-474 cells. BT-474 cells were cultured in DMEM/F12 medium supplemented with 10% FBS. Equal numbers were dispersed into 96-well plates. After 24 h, the cells were incubated with compounds 1-11 (0-30 μM) for 48 h. At the end of the incubation, MTS reagent (20% vol/vol) was added and the plates were incubated for 1-4 h. The OD490 was read with a plate reader. Wells with media but no cells were treated in similar fashion and the values utilized as blank. The results represent the mean±standard deviation of 6 independent determinations.
(§4) The cell lines were cultured from frozen stocks originally obtained from ATCC. MDA-MB-231, JIMT-1, DU145, U81, U251 cells were grown in DMEM medium. BT474, A2780s, A2780cp cells were grown in DMEM/F12 medium supplemented with 10% FBS. MiaPaCa2 was cultured in DMEM supplemented with 10% FBS and 2.5% horse serum. PC3 cells were cultured in F12K medium supplemented with 10% FBS. All the media were supplemented with penicillin/streptomycin.
(§5) The effects of the GAELs on the viability of the various epithelial cancer cell lines was determined as previously described. Briefly, equal numbers of the cells were dispersed into 96-well plates. After 24 h, the cells were incubated with the compounds (0-30 μM) for 48 h. At the end of the incubation, MTS reagent (20% vol/vol) was added and the plates were incubated for 1-4 h. The OD490 was read with a plate reader. Wells with media but no cells were treated in similar fashion and the values utilized as blank. The results represent the mean±standard deviation of 6 independent determinations.

[3] = tested on: EOC 216H primary ovarian cancer cells; assay: MTS viability, primary epithelial ovarian cancer cells EOC 216H; format: cell-based; conditions: Homo sapiens
Description: as §1, §2

JIMT-1 cells = assay: MTS viability assay, JIMT-1 breast cancer cells; format: cell-based, human
Description: as §3, with “2B.” for “2C.”, “JIMT-1” for “BT-474”, “DMEM” for “DMEM/F12”
as §3, with “2J.” for “2C.”, “1, 69-72” for “1-11”, “JIMT-1” for “BT-474”, “DMEM” for “DMEM/F12”, “1, 69-72” for “1-11 (0-30 μM)”
as §4, §5

[4] = tested on: EOC216B primary ovarian cancer cells; assay: MTS viability, primary epithelial ovarian cancer cells EOC216B; format: cell-based; conditions: Homo sapiens
Description: as §1, §2

[5] = 72 h, spheroid culture, 3 days, read-out: CC50 values EOC258 Spheroid
[6] = adherent culture, 48 h, read-out: CC50 values EOC258 Adherent
[7] = adherent culture, 48 h, read-out: CC50 values EOC 216H Adherent
[8] = spheroid culture, 3 days, read-out: CC50 values EOC 216H Spheroid
[9] = Homo sapiens, JIMT-1, Table 5, 48 h, read-out: CC50 JIMT1
[10] = Homo sapiens, JIMT-1, Table 5, 48 h, read-out: CC90 JIMT1
[11] = 72 h, spheroid culture, 3 days, read-out: CC50 values EOC216B Spheroid
[12] = adherent culture, 48 h, read-out: CC50 values EOC216B Adherent
[13] = Table 1A, 48 h, MTS, read-out: CC50 values BT474
[14] = Table 1B, 48 h, MTS, read-out: CC90 values BT474
[15] = Table 1A, 48 h, read-out: CC50 values JIMT1
[16] = Table 1B, 48 h, read-out: CC90 values JIMT1

CCCCCCCCCCCCCCCCOC[C@H](CO[C@H]1O[C@H](CN)[C@@H](O)[C@H](O)[C@H]1N)OC [Compound 1, 1-O-Hexadecyl-2-O-methyl-3-O-(2′,6′-diamino-2′,6′-dideoxy-α-D-glucopyranosyl)-sn-glycerol]
CC50 [1, 5]: 0.6 µM | CC50 [1, 6]: 0.3 µM | CC50 [2]: 0.2 µM | CC50 (BT-474 cells; Homo sapiens, BT-474, Table 1A, 48 h, MTS, read-out: CC50 values BT474): 7.5 µM | CC90 (BT-474 cells; Homo sapiens, BT-474, Table 1B, 48 h, MTS, read-out: CC90 values BT474): 9.5 µM | CC50 (BT-474 cells; Homo sapiens, BT-474, Table 5, 48 h, MTS, read-out: CC50 B1474): 7.5 µM | CC50 [3, 7]: 0.15 µM | CC50 [3, 8]: 0.21 µM | CC50 (JIMT-1 cells; Homo sapiens, JIMT-1, Table 1A, 48 h, read-out: CC50 values JIMT1): 3.5 µM | CC90 (JIMT-1 cells; Homo sapiens, JIMT-1, Table 1B, 48 h, read-out: CC90 values JIMT1): 4.9 µM | CC50 (JIMT-1 cells; [9]): 3.5 µM | CC90 (JIMT-1 cells; [10]): 4.9 µM | CC50 [4, 11]: 0.6 µM | CC50 [4, 12]: 0.24 µM

CCCCCCCCCCCCCCCCOCCCO[C@@H]1O[C@H](CN)[C@@H](O)[C@H](O)[C@H]1N [Compound 4, 1-O-Hexadecyl-2-deoxy-3-O-(2′6′-diamino-2′,6′-dideoxy-β-D-glucopyranosyl)-sn-glycerol]
CC50 (BT-474 cells; [13]): 8.5 µM | CC90 (BT-474 cells; [14]): 17.5 µM | CC50 (JIMT-1 cells; [15]): 4 µM | CC90 (JIMT-1 cells; [16]): 6 µM

CCCCCCCCCCCCCCCCOCC(CO[C@@H]1O[C@H](CN)[C@@H](O)[C@H](O)[C@H]1N)O[C@@H]1O[C@H](CN)[C@@H](O)[C@H](O)[C@H]1N (stereo partly drawn) [Compound 5, 1-O-Hexadecyloxy-2S/R, 3-di(-2′,6′-diamino-2′, 6′-dideoxy-β-D-glucopyranosyl)-glycerol]
CC50 (BT-474 cells; [13]): > 30 µM | CC90 (BT-474 cells; [14]): > 30 µM | CC50 (JIMT-1 cells; [15]): > 30 µM | CC90 (JIMT-1 cells; [16]): > 30 µM

CCCCCCCCCCCCCCCCOC[C@@H](CN=[N+]=[N-])O[C@@H]1O[C@H](CO)[C@@H](O)[C@H](O)[C@H]1N [Compound 6, 1-O-Hexadecyloxy-2R-(2′-amino-2′-deoxy-β-D-glucopyranosyl)-3-azido glycerol]
CC50 (BT-474 cells; [13]): 22 µM | CC90 (BT-474 cells; [14]): 28 µM | CC50 (BT-474 cells; read-out: CC50 against BT 474 cell lines): 22 µM | CC50 (JIMT-1 cells; [15]): 9.5 µM | CC90 (JIMT-1 cells; [16]): 13.5 µM

CCCCCCCCCCCCCCCCOCC(CO[C@@H]1OC(CO)[C@H](O)[C@H](O)C1N)OC (stereo partly drawn) [Compound 69]
CC50 [1, 5]: 1.2 µM | CC50 [1, 6]: 1.4 µM | CC50 [2]: 0.3 µM | CC50 [3, 7]: 1.02 µM | CC50 [3, 8]: 1.5 µM | CC50 (JIMT-1 cells; Homo sapiens, JIMT-1, Table 2A, 48 h, read-out: CC50 values JIMT1): 6.5 µM | CC90 (JIMT-1 cells; Homo sapiens, JIMT-1, Table 2B, 48 h, read-out: CC90 values JIMT1): 11 µM | CC50 (JIMT-1 cells; [9]): 6.5 µM | CC90 (JIMT-1 cells; [10]): 11 µM | CC50 [4, 11]: 1.25 µM | CC50 [4, 12]: 0.56 µM

CCCCCCCCCCCCCCCCOC[C@H](COC1O[C@H](CNCCCCCCCCCCCCN)[C@@H](O)[C@H](O)[C@H]1N)OC (stereo partly drawn) [Compound 73, 1-O-Hexadecyl-2-O-methyl-3-O-[6′-N-(12-aminododecyl)-2′,6′-diamino-2′,6′-dideoxy-glucopyranoside]-sn-glycerol]
CC50 (BT-474 cells; Table 6, 48 h, MTS, read-out: BT474 CC50): 1.6 µM | CC90 (BT-474 cells; Table 6, 48 h, MTS, read-out: BT474 CC90): 4.2 µM | CC50 (JIMT-1 cells; Table 6, 48 h, read-out: JIMT1 CC50): 3.4 µM | CC90 (JIMT-1 cells; Table 6, 48 h, read-out: JIMT1 CC90): 4.6 µM

From patent US10806746B2, “Di- and tri-cationic glycosylated antitumor ether lipids, L-gucosylated gaels and rhamnose-linked gaels as cytotoxic agents against epithelial cancer cells and cancer stem cells” (The University of Manitoba, priority 2014, dated 2020)
